This note sets out measurements from ChEMBL document CHEMBL1201862, “PubChem BioAssay data set” (2004).

Test systems include DU-145; PC-3; U-251; T47D; K562; MOLT-4; HCC 2998; HL-60; COLO 205; NCI-H460; ACHN; SNB-75; MDA-MB-435; UACC-257; SK-MEL-28; MCF7; Malme-3M; KM12; HCT-15; LXFL 529.
What all share (test): NCI tumour cell line growth inhibition, 48 h

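Method: 48-hour compound exposure of cells in 96-well plates, five concentrations, linear interpolation of endpoints. GI50 marks 50% less growth.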 Calls of active or inactive are those of the source. No stated cut-off is given here; in the data, active = GI50 up to about 1.1 µM and inactive = higher. Where only a bound is given, the exact number is not on record here.

For `NC(CSS(=O)(=O)c1ccccc1)C(=O)O` (stereo unspecified), the GI50 in the experiment with DU-145, with PC-3, in the experiment with U-251, in the experiment on T47D, with K562 and with MOLT-4 was > 10 µM (inactive) each time. Moreover, the GI50 with HCC 2998, with HL-60, in the experiment with COLO 205, in the experiment with NCI-H460, in the experiment on ACHN and in the experiment with SNB-75 was > 10 µM (inactive) in each case. The GI50 with MDA-MB-435, with UACC-257, in the experiment on SK-MEL-28, in the experiment on MCF7, in the experiment with Malme-3M and in the experiment with KM12 was > 10 µM (inactive) each time. For the same molecule, the GI50 in the experiment with HCT-15 was over 10 µM.

For `CCOC(=O)/C1=C(\C)N(Cc2ccccc2)C(=O)c2ccccc2C(=O)c2c(O)ccc(O)c21`, the GI50 in the experiment with DU-145, in the experiment on PC-3, in the experiment with U-251, in the experiment on T47D, in the experiment on K562 and with MOLT-4 was > 100 µM (inactive) in each case. The GI50 in the experiment on HCC 2998, in the experiment with HL-60, in the experiment on COLO 205, in the experiment on NCI-H460, with ACHN and with SNB-75 was > 100 µM (inactive) throughout. The GI50 is > 100 µM (inactive) with MDA-MB-435; > 100 µM (inactive) with UACC-257; > 100 µM (inactive) with SK-MEL-28; < 0.01 µM (active) in the experiment with MCF7; > 100 µM (inactive) with Malme-3M; > 100 µM (inactive) in the experiment on KM12. For the same molecule, the GI50 in the experiment on HCT-15 is over 100 µM.

Consider `O=c1[nH]c(=O)n(Cc2ccccc2CO)cc1Sc1ccccc1`, for which the GI50 in the experiment with DU-145 is 58.9 µM (inactive); in the experiment on PC-3 it was 33 µM (inactive); in the experiment with U-251, 34.4 µM (inactive); in the experiment with T47D, 62.4 µM (inactive); with K562, 6.78 µM (inactive); in the experiment with MOLT-4 it was 54.5 µM (inactive). In addition, the GI50 was 15.7 µM (inactive) in the experiment with HCC 2998; 74.8 µM (inactive) in the experiment with HL-60; 37.2 µM (inactive) in the experiment with COLO 205; 49.7 µM (inactive) with NCI-H460; 26.5 µM (inactive) in the experiment on ACHN; 36.6 µM (inactive) in the experiment on SNB-75. In addition, the GI50 was 20 µM (inactive) in the experiment with MDA-MB-435; 21.6 µM (inactive) in the experiment on UACC-257; 34.8 µM (inactive) in the experiment on SK-MEL-28; 22.3 µM (inactive) with MCF7; 21.4 µM (inactive) with Malme-3M; 23.7 µM (inactive) in the experiment on KM12. In the experiment on HCT-15, this molecule showed a GI50 of 18.8 µM.

For the molecule `COc1cccc(Nc2nc(NNC(=O)Cc3ccccc3)nc(NNC(=O)c3ccncc3)n2)c1`, the GI50 was > 10 µM (inactive) with DU-145; 53.1 µM (inactive) in the experiment on PC-3; > 10 µM (inactive) in the experiment with U-251; > 10 µM (inactive) with T47D; > 10 µM (inactive) with K562; 78.7 µM (inactive) in the experiment with MOLT-4. In addition, the GI50 in the experiment with HCC 2998 is > 10 µM (inactive); in the experiment on HL-60, 68.1 µM (inactive); with COLO 205, > 10 µM (inactive); with NCI-H460 it was > 10 µM (inactive); in the experiment on ACHN, > 100 µM (inactive); in the experiment with SNB-75 it was 53.5 µM (inactive). Further, the GI50 in the experiment with MDA-MB-435 is 52.8 µM (inactive); in the experiment with UACC-257 it was > 10 µM (inactive); in the experiment with SK-MEL-28, > 100 µM (inactive); in the experiment with MCF7 it was > 10 µM (inactive); in the experiment with Malme-3M, > 10 µM (inactive); in the experiment with KM12, 71.3 µM (inactive). This molecule also gave a GI50 with HCT-15 of 7.93 µM.

For `Cc1cc(S(=O)(=O)Nc2nnc3c(C(F)(F)F)cc(Cl)cn23)c(S)cc1Cl`, the GI50 with DU-145 was > 100 µM (inactive); with PC-3, > 100 µM (inactive); with U-251 it was 46.6 µM (inactive); in the experiment on T47D, 70.5 µM (inactive); in the experiment on K562, > 100 µM (inactive); in the experiment on MOLT-4 it was 74 µM (inactive). Moreover, the GI50 with HCC 2998 was > 100 µM (inactive); with HL-60 it was > 100 µM (inactive); in the experiment with COLO 205 it was > 100 µM (inactive); with NCI-H460 it was 45.3 µM (inactive); in the experiment on ACHN, 48.2 µM (inactive); in the experiment on SNB-75, 90.8 µM (inactive). The GI50 is 76 µM (inactive) in the experiment with MDA-MB-435; > 100 µM (inactive) with UACC-257; > 100 µM (inactive) with SK-MEL-28; > 100 µM (inactive) in the experiment on MCF7; > 100 µM (inactive) in the experiment with Malme-3M; 94.8 µM (inactive) with KM12. The same molecule displayed a GI50 in the experiment with HCT-15 of over 100 µM.

Take `CC(=O)N1c2cc(/N=N/N(C)C)ccc2NC(=O)CC1C` (stereo unspecified): the GI50 in the experiment on DU-145, in the experiment on PC-3, in the experiment with U-251, in the experiment on T47D, in the experiment with K562 and in the experiment on MOLT-4 was > 100 µM (inactive) throughout. The GI50 with HCC 2998, in the experiment with HL-60, with COLO 205, with NCI-H460, in the experiment on ACHN and with SNB-75 was > 100 µM (inactive) throughout. The GI50 in the experiment with MDA-MB-435, in the experiment with UACC-257, in the experiment with SK-MEL-28, in the experiment with MCF7, in the experiment on Malme-3M and in the experiment with KM12 was > 100 µM (inactive) each time. In the experiment with HCT-15, this molecule gave a GI50 of over 100 µM.

Take `COc1ccc(/C=C2\CCCCC2=O)cc1`: the GI50 with U-251, with K562, with MOLT-4, in the experiment on HL-60, with COLO 205 and in the experiment with NCI-H460 was > 100 µM (inactive) each time. Besides, the GI50 in the experiment with ACHN was > 100 µM (inactive); in the experiment with SNB-75, 41.8 µM (inactive); with LXFL 529 it was > 100 µM (inactive); in the experiment on SK-MEL-28, > 100 µM (inactive); in the experiment on HCT-15, over 100 µM.

Regarding `N=C(N)N/N=C/c1c(-c2cccc([N+](=O)[O-])c2)nc2n1CCS2`, the GI50 was 19 µM (inactive) in the experiment on DU-145; 16.9 µM (inactive) in the experiment with PC-3; 14.9 µM (inactive) in the experiment on U-251; 8.02 µM (inactive) with T47D; 11.2 µM (inactive) in the experiment with K562; 11.4 µM (inactive) with MOLT-4. The GI50 in the experiment with HCC 2998 was 19.4 µM (inactive); in the experiment with HL-60, 19.1 µM (inactive); in the experiment on COLO 205, 8.32 µM (inactive); in the experiment on NCI-H460 it was 22.8 µM (inactive); with ACHN, 17.7 µM (inactive); in the experiment with SNB-75, 9.68 µM (inactive). Moreover, the GI50 is 28.2 µM (inactive) in the experiment on MDA-MB-435; 19.1 µM (inactive) in the experiment on UACC-257; 19.8 µM (inactive) in the experiment with SK-MEL-28; 11 µM (inactive) with MCF7; 18.9 µM (inactive) with Malme-3M; 18.4 µM (inactive) in the experiment on KM12. Moreover, the GI50 in the experiment on HCT-15 is 33.1 µM.

With `CCOC(=O)c1cc2cc(N(C(C)=O)C(C)=O)ccc2s1`, the GI50 with DU-145 was 23.7 µM (inactive); in the experiment with PC-3, 20.5 µM (inactive); in the experiment with U-251, 20.7 µM (inactive); with T47D, 18.3 µM (inactive); in the experiment with K562, 24.7 µM (inactive); in the experiment with MOLT-4 it was 18.6 µM (inactive). The GI50 in the experiment on HCC 2998 was 35.4 µM (inactive); in the experiment on HL-60, 13 µM (inactive); with COLO 205, 33.7 µM (inactive); in the experiment with NCI-H460 it was 38.5 µM (inactive); in the experiment on ACHN it was 25.2 µM (inactive); with SNB-75 it was 10.1 µM (inactive). The GI50 with MDA-MB-435 is 37 µM (inactive); in the experiment on UACC-257 it was 40 µM (inactive); in the experiment on SK-MEL-28, 30.8 µM (inactive); in the experiment on MCF7, 28.3 µM (inactive); in the experiment with Malme-3M it was 16.6 µM (inactive); in the experiment on KM12, 40.5 µM (inactive). The same molecule had a GI50 in the experiment on HCT-15 of 36.1 µM.

`C/C(=N\O)c1cccc(Nc2nc3ccccc3c3occc23)c1`: the GI50 in the experiment with DU-145 was 13.2 µM (inactive); in the experiment with PC-3, 12.1 µM (inactive); with U-251 it was 19.4 µM (inactive); in the experiment on T47D, 7.73 µM (inactive); in the experiment with K562, 7.85 µM (inactive); in the experiment on MOLT-4, 5.96 µM (inactive). The GI50 with HCC 2998 was 14.6 µM (inactive); in the experiment on HL-60 it was 20.9 µM (inactive); in the experiment with COLO 205, 12.9 µM (inactive); with NCI-H460, 4.35 µM (inactive); with ACHN, 10.3 µM (inactive); with SNB-75, 16.2 µM (inactive). In addition, the GI50 in the experiment on MDA-MB-435 is 10.1 µM (inactive); in the experiment with UACC-257, < 0.01 µM (active); in the experiment on SK-MEL-28, 14.3 µM (inactive); in the experiment with MCF7, 15 µM (inactive); with Malme-3M it was 14.4 µM (inactive); in the experiment with KM12, 10 µM (inactive). This molecule also showed a GI50 with HCT-15 of 7.94 µM.

As to `COC[C@@H](/N=C/C(C)(C)C)C(C)C`, the GI50 in the experiment on DU-145, in the experiment with PC-3, in the experiment on U-251, in the experiment on T47D, in the experiment with K562 and in the experiment on MOLT-4 was > 100 µM (inactive) throughout. The GI50 with HCC 2998, in the experiment on HL-60, in the experiment on COLO 205, with NCI-H460, in the experiment on ACHN and in the experiment on SNB-75 was > 100 µM (inactive) in each case. Moreover, the GI50 in the experiment on MDA-MB-435 was > 100 µM (inactive); with UACC-257 it was 67.3 µM (inactive); in the experiment on SK-MEL-28, > 100 µM (inactive); in the experiment on MCF7 it was > 100 µM (inactive); in the experiment on Malme-3M, > 100 µM (inactive); with KM12, > 100 µM (inactive). The GI50 in the experiment on HCT-15 is over 100 µM.
